Structures are written as SMILES. A value given as a limit tells only on which side of the number the result lay.

Recombinant human Mat2a, sequence (P31153 whole entry): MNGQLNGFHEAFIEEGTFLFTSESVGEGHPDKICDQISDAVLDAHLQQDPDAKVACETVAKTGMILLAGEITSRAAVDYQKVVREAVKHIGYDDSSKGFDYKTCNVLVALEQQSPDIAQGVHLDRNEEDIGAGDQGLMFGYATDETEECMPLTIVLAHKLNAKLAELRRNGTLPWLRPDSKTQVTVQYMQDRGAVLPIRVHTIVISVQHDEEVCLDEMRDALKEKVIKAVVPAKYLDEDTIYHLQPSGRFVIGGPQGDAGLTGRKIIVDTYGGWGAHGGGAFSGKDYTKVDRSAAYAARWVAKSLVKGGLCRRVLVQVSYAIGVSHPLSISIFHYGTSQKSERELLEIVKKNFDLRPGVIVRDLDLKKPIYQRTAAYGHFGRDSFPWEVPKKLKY

The experiment concerns the target Recombinant human Mat2a (Homo sapiens (Human), UniProt P31153). The experiment in a line: Determination of Mat2A activity (384 well absorbance-based assay, Biomol Green). Conditions: 12.5 nM Mat2A, 100 μM ATP and Methionine, 2% DMSO, 120 minutes at RT, absorbance at 635 nm; read-out: MAT2A_LEC IC50 (uM) (Num). It counts as biochemical. How it is done: Determination of Mat2A Activity
Measurement of Mat2A inhibition is performed in 384 well format absorbance-based assay. Recombinant human Mat2a (12.5 nM) and serial diluted compounds in DMSO (range of concentrations from 10 μM to 508 pM) or controls (DMSO) are incubated for 15 minutes at room temperature (RT) in assay buffer containing 50 mM HEPES pH 7.5, 50 mM KCl, 50 mM MgCl2, 0.01%Tween 20 and 10 mM DTT. The reaction is initiated by the addition of the combined substrates ATP and Methionine, each at a final concentration of 100 μM. Final assay condition are 12.5 nM Mat2A, 100 μM ATP and Methionine Substrates and 2% DMSO. After 120 minutes of incubation at RT, the reaction is stopped by the addition of Biomol Green. The absorbance signal is measured at λ=635 nm with a multiplate reader (BMG Pherastar reader or equivalent) after 30 min of equilibration at RT.
What is called IC50 is the concentration that inhibits the measured activity by half. Turning to `Cc1cc(-c2c(S(C)(=O)=O)ccc3[nH]nc(OC(F)F)c23)ccc1S(=O)(=O)C1CC1` [Example 55, 4-(4-cyclopropylsulfonyl-3-methyl-phenyl)-3-(difluoromethoxy)-5-methylsulfonyl-1H-indazole], the IC50 was less than 0.013 µM.

Take `Cc1cc(-c2nccc3[nH]nc(Br)c23)ccc1S(C)(=O)=O` [Example 56, 3-bromo-4-(3-methyl-4-(methylsulfonyl)phenyl)-1H-pyrazolo[4,3-c]pyridine]: the IC50 was 0.19 µM. For `Cc1cc(-c2nccc3[nH]nc(OC(F)F)c23)ccc1S(C)(=O)=O` [Example 57, 3-(difluoromethoxy)-4-(3-methyl-4-(methylsulfonyl)phenyl)-1H-pyrazolo[4,3-c]pyridinepyridine] the value was less than 0.013 µM; for `COc1n[nH]c2ccnc(-c3ccc(S(C)(=O)=O)c(C)c3)c12` [Example 58, 3-methoxy-4-(3-methyl-4-(methylsulfonyl)phenyl)-1H-pyrazolo[4,3-c]pyridine], 0.24 µM. As for `CS(=O)(=O)c1ccc(-c2nccc3[nH]nc(C4CC4)c23)cc1N` [Example 59, 5-(3-cyclopropyl-1H-pyrazolo[4,3-c]pyridin-4-yl)-2-(methylsulfonyl)aniline], the IC50 was 0.26 µM. As for `Cc1cc(-c2nccc3[nH]nc(S(C)(=O)=O)c23)ccc1S(C)(=O)=O` [Example 60, 4-(3-methyl-4-(methylsulfonyl)phenyl)-3-(methylsulfonyl)-1H-pyrazolo[4,3-c]pyridine], the figure is 0.29 µM. For `Cc1cc(-c2nccc3[nH]nc(C#N)c23)ccc1S(C)(=O)=O` [Example 61, 4-(3-methyl-4-(methylsulfonyl)phenyl)-1H-pyrazolo[4,3-c]pyridine-3-carbonitrile] the value was 0.25 µM; for `Cc1cc(-c2c(C(=O)O)ncc3[nH]nc(C4CC4)c23)ccc1S(C)(=O)=O` [Example 62, 3-cyclopropyl-4-(3-methyl-4-(methylsulfonyl)phenyl)-1H-pyrazolo[3,4-c]pyridine-5-carboxylic acid], less than 0.013 µM; for `Cc1cc(-c2c(C#N)ccc3[nH]nc(C4CC4)c23)ccc1S(C)(=O)=O` [Example 63, 3-cyclopropyl-4-(3-methyl-4-methylsulfonylphenyl)-1H-indazole-5-carbonitrile], less than 0.013 µM. As for `Cc1cc(-c2ncc(O)c3[nH]nc(C4CC4)c23)ccc1S(C)(=O)=O` [Example 64, 3-cyclopropyl-4-(3-methyl-4-methylsulfonyl-phenyl)-1H-pyrazolo[4,3-c]pyridin-7-ol], the figure is 0.2 µM.

Regarding `Cc1cc(-c2nccc3[nH]nc(-c4ccsc4)c23)ccc1S(C)(=O)=O` [Example 65, 4-(3-methyl-4-(methylsulfonyl)phenyl)-3-(thiophen-3-yl)-1H-pyrazolo[4,3-c]pyridine], the IC50 was 0.52 µM. For `CCOc1n[nH]c2ccnc(-c3ccc(S(C)(=O)=O)c(C)c3)c12` [Example 66, 3-ethoxy-4-(3-methyl-4-methylsulfonyl-phenyl)-1H-pyrazolo[4,3-c]pyridine] the value was 0.13 µM; for `Cc1cc(-c2ncc(F)c3[nH]nc(C4CC4)c23)ccc1S(C)(=O)=O` [Example 67, 3-cyclopropyl-7-fluoro-4-(3-methyl-4-methylsulfonyl-phenyl)-1H-pyrazolo[4,3-c]pyridine], 0.025 µM. For `COc1n[nH]c2ccc(C#N)c(-c3ccc(S(C)(=O)=O)c(C)c3)c12` [Example 68, 3-methoxy-4-(3-methyl-4-(methylsulfonyl)phenyl)-1H-indazole-5-carbonitrile] the value was less than 0.013 µM; for `Cc1cc(-c2c(C#N)ccc3[nH]nc(OC(F)F)c23)ccc1S(C)(=O)=O` [Example 69, 3-(difluoromethoxy)-4-(3-methyl-4-(methylsulfonyl)phenyl)-1H-indazole-5-carbonitrile], less than 0.013 µM; for `COc1cc2[nH]nc(C3CC3)c2c(-c2ccc(S(C)(=O)=O)c(C)c2)n1` [Example 70, 3-cyclopropyl-6-methoxy-4-(3-methyl-4-methylsulfonylphenyl)-1H-pyrazolo[4,3-c]pyridine], 0.061 µM. For `Cc1cc(-c2nccc3[nH]nc(OC(F)(F)F)c23)ccc1S(C)(=O)=O` [Example 71, 4-(3-methyl-4-(methylsulfonyl)phenyl)-3-(trifluoromethoxy)-1H-pyrazolo[4,3-c]pyridine] the value was less than 0.013 µM; for `Cc1cc(-c2c(C(N)=O)ncc3[nH]nc(C4CC4)c23)ccc1S(C)(=O)=O` [Example 72, 3-cyclopropyl-4-(3-methyl-4-(methylsulfonyl)phenyl)-1H-pyrazolo[3,4-c]pyridine-5-carboxamide], less than 0.013 µM; for `CNC(=O)c1ncc2[nH]nc(C3CC3)c2c1-c1ccc(S(C)(=O)=O)c(C)c1` [Example 73], less than 0.013 µM. As for `Cc1cc(-c2nncc3[nH]nc(C4CC4)c23)ccc1S(C)(=O)=O` [Example 74, 3-cyclopropyl-4-(3-methyl-4-(methylsulfonyl)phenyl)-1H-pyrazolo[3,4-d]pyridazine], the IC50 came out at 0.11 µM. As for `CSc1ccc2[nH]nc(C3CC3)c2c1-c1ccc(S(C)(=O)=O)c(C)c1` [Example 75, 3-cyclopropyl-4-(3-methyl-4-(methylsulfonyl)phenyl)-5-(methylthio)-1H-indazole], the IC50 was determined as 0.013 µM.

Consider `Cc1cc(-c2c([S+](C)[O-])ccc3[nH]nc(C4CC4)c23)ccc1S(C)(=O)=O` (stereo not drawn) [Example 76, 3-cyclopropyl-4-(3-methyl-4-(methylsulfonyl)phenyl)-5-(methylsulfinyl)-1H-indazole], for which the IC50 was found to be 0.26 µM.

Take `Cc1cc(-c2c(S(C)(=O)=O)ccc3[nH]nc(C4CC4)c23)ccc1S(C)(=O)=O` [Example 77, 3-cyclopropyl-4-(3-methyl-4-(methylsulfonyl)phenyl)-5-(methylsulfonyl)-1H-indazole]: the IC50 is 0.013 µM. For `Cc1cc(-n2c(=O)ccc3[nH]nc(OC(F)F)c32)ccc1S(C)(=O)=O` [Example 78, 3-(difluoromethoxy)-4-(3-methyl-4-methylsulfonyl-phenyl)-1H-pyrazolo[4,3-b]pyridin-5-one] the value was less than 0.013 µM. Regarding `Cc1cc(-c2c(C(F)(F)F)ncc3[nH]nc(C4CC4)c23)ccc1S(C)(=O)=O` [Example 79, 3-cyclopropyl-4-(3-methyl-4-methylsulfonylphenyl)-5-(trifluoromethyl)-1H-pyrazolo[3,4-c]pyridine], the IC50 was less than 0.013 µM. As to `Cc1cc(-n2c(=O)c(C)cc3[nH]nc(C4CC4)c32)ccc1S(C)(=O)=O` [Example 80, 3-cyclopropyl-6-methyl-4-(3-methyl-4-methylsulfonyl-phenyl)-1H-pyrazolo[4,3-b]pyridin-5-one], the half-inhibitory concentration (IC50) was found to be 0.031 µM.

On to `Cc1cc(-n2c(=O)c(C3CC3)cc3[nH]nc(C4CC4)c32)ccc1S(C)(=O)=O` [Example 81, 3,6-dicyclopropyl-4-(3-methyl-4-methylsulfonyl-phenyl)-1H-pyrazolo[4,3-b]pyridin-5-one], for which the IC50 was found to be 0.079 µM. As for `Cc1cc(-c2c(OC(F)F)ncc3[nH]nc(C4CC4)c23)ccc1S(C)(=O)=O` [Example 82, 3-cyclopropyl-5-(difluoromethoxy)-4-(3-methyl-4-(methylsulfonyl)phenyl)-1H-pyrazolo[3,4-c]pyridine], the figure is less than 0.013 µM. In the case of `Cc1cc(-c2c(C(=O)N(C)C)ncc3[nH]nc(C4CC4)c23)ccc1S(C)(=O)=O` [Example 83, 3-cyclopropyl-N,N-dimethyl-4-(3-methyl-4-(methylsulfonyl)phenyl)-1H-pyrazolo[3,4-c]pyridine-5-carboxamide], the IC50 was 0.5 µM. For `Cc1cc(-c2c(C3CC3)ncc3[nH]nc(C4CC4)c23)ccc1S(C)(=O)=O` [Example 85] the value was 0.02 µM. As for `CNC(=O)c1c(F)cc2[nH]nc(C3CC3)c2c1-c1ccc(S(C)(=O)=O)c(C)c1` [Example 88, 3-cyclopropyl-6-fluoro-N-methyl-4-(3-methyl-4-(methylsulfonyl)phenyl)-1H-indazole-5-carboxamide], the figure is less than 0.013 µM; as for `CNC(=O)c1ncc2[nH]nc(C3CC3)c2c1-c1ccc(S(=O)(=O)C2CC2)c(C)c1` [Example 89, 3-cyclopropyl-4-(4-cyclopropylsulfonyl-3-methyl-phenyl)-N-methyl-1H-pyrazolo[3,4-c]pyridine-5-carboxamide], 0.035 µM; as for `Cc1cc(-c2c(C#N)c(Cl)cc3[nH]nc(C4CC4)c23)ccc1S(C)(=O)=O` [Example 90, 6-chloro-3-cyclopropyl-4-(3-methyl-4-methylsulfonylphenyl)-1H-indazole-5-carbonitrile], less than 0.013 µM.

For the compound `Cc1cc(-n2c(=O)ccc3[nH]nc(OC(F)(F)F)c32)ccc1S(C)(=O)=O` [Example 91, 4-(3-methyl-4-methylsulfonyl-phenyl)-3-(trifluoromethoxy)-1H-pyrazolo[4,3-b]pyridin-5-one], the 50% inhibitory concentration (IC50) was less than 0.013 µM. As for `Cc1cc(-n2c(=O)ccc3[nH]cc(C4CC4)c32)ccc1S(C)(=O)=O` [Example 92, 3-cyclopropyl-4-(3-methyl-4-methylsulfonyl-phenyl)-1H-pyrrolo[3,2-b]pyridin-5-one], the figure is 0.029 µM. For `Cc1cc(-c2c(S(C)(=O)=O)ccc3[nH]nc(OC(F)(F)F)c23)ccc1S(C)(=O)=O` [Example 93, 4-(3-methyl-4-(methylsulfonyl)phenyl)-5-(methylsulfonyl)-3-(trifluoromethoxy)-1H-indazole] the value was less than 0.013 µM.

The values are drawn from US12565497B2 (Hoffmann-La Roche Inc., priority 2020, dated 2026).
